Experiments:
[1] = system: mouse embryonic fibroblasts (MEFs); experiment: Reprogramming into iPSCs (OSKM) in mouse embryonic fibroblasts, AP staining; assay type: cell-based; details: MEFs; for enhancing reprogramming efficiency: 14 days
Description: During reprogramming into iPSCs by introducing OSKM reprogramming factor into mouse embryonic fibroblasts (MEFs), rotenone, the guanidine derivatives of the present invention, and phenformin were treated at the indicated concentrations. After 14 days, alkaline phosphatase (AP) staining was performed (FIG. 2A), and the number of AP^+ colonies was quantified (FIG. 2b). […] In the subsequent experiment, additional efficacy was evaluated using only the three compounds showing the effective reprogramming-enhancing effect.

[2] = system: human foreskin fibroblast (HFFs); experiment: Reprogramming into iPSCs (OSKM) in human foreskin fibroblasts, AP staining; assay type: cell-based
Description: After 28 days, AP staining was performed (FIG. 3a), and the number of AP^+ colonies was quantified (FIG. 3b).

[3] = system: HK2, LDHA, NDUS3, ATP5B, Wnt1a, Lef-1, Gli-1, versican; experiment: Expression of genes related to metabolism and hair regeneration in skin tissue; assay type: in vivo, mouse
Description: (§1) During the hair telogen phase, the hair on the dorsal skin of 7-week-old C57BL/6 mice (Dae Han BioLink, Chungbuk, Republic of Korea) was depilated using an animal clipper and wax (Veet, Oxy Reckitt Benckiser, Seoul, Republic of Korea). From the next day, 200 μL of placebo (control), 1% IM, 1% minoxidil, or 1% metformin was applied daily to the depilated area using a sterile cotton swab. Images of each animal were captured daily, and the degree of darkness of the color on dorsal skin was quantified in the same area (1.6 cm×3 cm) using the Image J program. The mice were sacrificed, and skin tissues on days 0, 7, 14, and 20 were obtained. Half of the tissues were used for RNA isolation, and the other half were fixed with 4% paraformaldehyde overnight for histochemical analysis. The level of expression of genes related to metabolism and hair regeneration was analyzed through the skin tissue of each mouse group.

[4] = system: C57BL/6 mice; experiment: Side effects observed during hair regeneration experiment; assay type: in vivo, mouse; details: topical treatment during the experiment
Description: as §1, with “analysis.” for “analysis. The level of expression of genes related to metabolism and hair regeneration was analyzed through the skin tissue of each mouse group.”

[5] = system: auricle; experiment: Auricle punch analysis (auricular tissue repair); assay type: in vivo, mouse; details: 2 mm ear punch holes, daily topical application, indicated concentrations
Description: For the auricular tissue repair analysis, three holes with a diameter of 2 mm were drilled in each ear using a punching instrument (Fine Science Tools, British Columbia, Canada). IM at the indicated concentration was applied daily with a sterile cotton swab. The hole area was measured with digital calipers (VWR, Radnor, Pa., USA).

[6] = system: C57BL/6 mice; experiment: Hair regeneration model, darkness of dorsal skin and hair growth; assay type: in vivo, mouse
Description: as §1, with “It was confirmed whether the IM compound can promote hair growth without showing toxicity or other side effects through mouse experiments. In 7-week-old C57BL/6 mice, the telogen phase was motivated by hair removal, and various concentrations” for “The level”, “IM were applied topically to the dorsal skin” for “expression”, “of” for “of genes related to metabolism and hair regeneration was analyzed through”, “mice daily.” for “skin tissue of each mouse group.”

[7] = system: K15/β-catenin, Ki67/Shh, K15/PDK, Ki67/PDH populations; experiment: FACS analysis of single skin cells; assay type: in vivo, mouse
Description: as §1, with “After the mice were perfused with PBS” for “The level of expression of genes related”, “remove blood,” for “metabolism and hair regeneration was analyzed through”, “was harvested and cut into small pieces. The tissue was digested with trypsin (Thermo Fisher Scientific) at 37° C. for 150 minutes, then filtered through a 75 μm nylon mesh, followed by filtering through a 30 μm mesh (BD Biosciences). Single cells were fixed, permeabilized, and blocked according to the immunostaining protocol. The cells were stained with specific antibodies (Table 1 above) and analyzed with BD Accuri™ C6 (BD Biosciences)” for “of each mouse group.”

Compound: Cc1ccccc1CCNC(=N)NC(=N)N [IM176OUT05, N-1-(2-methyl)phenethylbiguanide]
- enhancing reprogramming efficiency ([1]; 10 nM): 16.8 times
- enhancing reprogramming efficiency ([1]; 20 nM): 13.9 times
- enhancing reprogramming efficiency ([1]; 50 nM): 13.7 times
- effect on reprogramming, number of AP+ colonies ([1]; OSKM, after 14 days, indicated concentrations): increased
- enhancing reprogramming efficiency ([2]; 10 nM, 100 nM, and 500 nM, 28 days): ≥ 2.4 times
- concentration with the most excellent reprogramming efficacy ([2]; OSKM, after 28 days): 10 nM
- expression of stemness-related genes (Wnt1a, Lef-1, Gli-1, and versican) ([3]; day 7, skin): significantly upregulated
- expression of glycolysis-related enzymes (HK2 and LDHA) ([3]; day 7, skin tissue): significantly induced
- stemness-related genes compared to control ([3]; day 20, skin): significantly induced
- expression of OXPHOS-related enzymes (NDUS3 and ATP5B) compared to control ([3]; day 20, skin tissue): increased
- expression of glycolysis-related enzymes (HK2 and LDHA) compared to control ([3]; day 20, skin tissue): significantly increased
- side effects, including skin problems [4]: No side effects
- wound area of the auricle [5]: reduced the wound area of the auricle in a dose-dependent manner
- black pigmentation and hair growth ([6]; 1% topical daily on dorsal skin, day 9): remarkably observed
- hair growth, male and female mice ([6]; 1% topical daily, comparison with minoxidil): promoted hair growth in both male and female mice
- skin color compared to control or minoxidil-treated mice ([6]; 1% topical daily, day 8): clearly darkened
- hair growth ([6]; 1% topical daily, day 10): markedly promoted
- hair growth in female mice ([6]; 1% topical daily, female mice): strong promoting effect
- effect compared to minoxidil, independent experiment ([6]; female mice): excellent effect as compared to minoxidil
- K15+/PDK+ population in single skin cells ([7]; day 7, FACS): 5.9%
- K15+/β-catenin+ population in single skin cells ([7]; day 7, FACS): 11.7%
- Ki67+/PDH+ population ([7]; day 7, FACS): 13.7%
- increase of K15+/β-catenin+ population compared to control ([7]; day 7, FACS): 3.7
- increase of glycolytic stem cell population (K15+/PDK+) compared to control ([7]; day 7, FACS): at least 6.6 times
- Ki67+/Shh+ population in single skin cells ([7]; day 20, FACS): 36.7%
- PDK+ cell population and Ki67+ cell population ([7]; day 20, FACS): increased
- increase of Ki67+/Shh+ population compared to control ([7]; day 20, FACS): 2.7 times
- separated populations of PDH+ cells and K15+ cells ([7]; day 20, FACS): increased
